# Experiments:
# [1] = test system: velvetleaf; test: Test Example 5: herbicidal effect by foliage application, plastic box (Table 20, symbol M); assay type: in vivo, velvetleaf (Abutilon theophrasti)
# Excerpt: (§1) [Test Example 5] Herbicidal Effect Test by Foliage Application
# (§2) Sterilized diluvial soil was placed in a plastic box having a length of 21 cm, a width of 13 cm, and a depth of 7 cm. The seeds of each of southern crabgrass, green foxtail, barnyard grass, wild oat, blackgrass, Italian ryegrass, windgrass, velvetleaf, redroot pigweed, lambsquarters, chickweed, false cleavers, persian speedwell, corn, soybean, rice, wheat, beet, and rapeseed were sowed in a spot-like manner and covered with the soil having a thickness of about 1.5 cm. Thereafter, the plants were grown in a greenhouse at 25° C. to 30° C. After 14-day growth of the plants, the emulsion agent of the compound of the present invention prepared according to Formulation Example 2 was diluted with water so as to achieve a predetermined herbicide amount, and the diluted emulsion agent was uniformly applied to a foliage part with a small-sized spray. Three weeks after the herbicide application, the effect of the herbicide on each plant was evaluated according to the criteria of Test Example 1.
# [2] = test system: Chinese sprangletop; test: Test Example 3: herbicidal effect by foliage application, Wagner pot (Table 18, symbol D); assay type: in vivo, chinese sprangletop (Leptochloa chinensis)
# Summary of the method: (§3)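 Plants were sown in alluvial soil held under 0.1–0.5 cm standing water and grown 14 days in a greenhouse at 25–30 °C. An emulsifiable formulation, water-diluted to the set dose, was then sprayed onto the foliage, and effects were scored three weeks later using previously defined criteria.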
# [3] = test system: green foxtail; test: Test Example 4: herbicidal effect by soil treatment (Table 19, symbol G); assay type: in vivo, green foxtail (Setaria viridis); conditions: amount of applied herbicide 320 g/ha
# Excerpt: (§4) [Test Example 4] Herbicidal Effect Test by Soil Treatment
# as §2, with “Subsequently,” for “Thereafter, the plants were grown in a greenhouse at 25° C. to 30° C. After 14-day growth of the plants,”, “the surface of the soil” for “a foliage part”, “spray. The plastic box was placed in a greenhouse at 25° C. to 30° C. for growth of the plants.” for “spray.”
# [4] = test system: redroot pigweed; test: Test Example 5: herbicidal effect by foliage application, plastic box (Table 20, symbol N); assay type: in vivo, redroot pigweed (Amaranthus retroflexus)
# Excerpt: as §1, §2
# [5] = test system: velvetleaf; test: Test Example 4: herbicidal effect by soil treatment (Table 19, symbol M); assay type: in vivo, velvetleaf (Abutilon theophrasti); conditions: amount of applied herbicide 320 g/ha
# Excerpt: as §4
# as §2, with “Subsequently,” for “Thereafter, the plants were grown in a greenhouse at 25° C. to 30° C. After 14-day growth of the plants,”, “the surface of the soil” for “a foliage part”, “spray. The plastic box was placed in a greenhouse at 25° C. to 30° C. for growth of the plants.” for “spray.”
# [6] = test system: barnyard grass; test: Test Example 4: herbicidal effect by soil treatment (Table 19, symbol H); assay type: in vivo, barnyard grass (Echinochloa crus-galli); conditions: amount of applied herbicide 320 g/ha
# Excerpt: as §4
# as §2, with “Subsequently,” for “Thereafter, the plants were grown in a greenhouse at 25° C. to 30° C. After 14-day growth of the plants,”, “the surface of the soil” for “a foliage part”, “spray. The plastic box was placed in a greenhouse at 25° C. to 30° C. for growth of the plants.” for “spray.”
# [7] = test system: lambsquarters; test: Test Example 5: herbicidal effect by foliage application, plastic box (Table 20, symbol O); assay type: in vivo, lambsquarters (Chenopodium album)
# Summary of the method: (§5)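 Plants were sown into sterilized diluvial soil under about 1.5 cm cover and kept in a greenhouse at 25° C. to 30° C. Fourteen days on, foliage received an even spray of the diluted emulsion. Herbicidal or crop effect was judged three weeks afterwards.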
# [8] = test system: rice flat sedge; test: Test Example 3: herbicidal effect by foliage application, Wagner pot (Table 18, symbol E); assay type: in vivo, rice flat sedge (Cyperus iria)
# Summary of the method: as §3
# [9] = test system: redroot pigweed; test: Test Example 4: herbicidal effect by soil treatment (Table 19, symbol N); assay type: in vivo, redroot pigweed (Amaranthus retroflexus); conditions: amount of applied herbicide 320 g/ha
# Excerpt: as §4
# as §2, with “Subsequently,” for “Thereafter, the plants were grown in a greenhouse at 25° C. to 30° C. After 14-day growth of the plants,”, “the surface of the soil” for “a foliage part”, “spray. The plastic box was placed in a greenhouse at 25° C. to 30° C. for growth of the plants.” for “spray.”
# [10] = test system: green foxtail; test: Test Example 5: herbicidal effect by foliage application, plastic box (Table 20, symbol G); assay type: in vivo, green foxtail (Setaria viridis)
# Summary of the method: as §5
# [11] = test system: barnyard grass; test: Test Example 5: herbicidal effect by foliage application, plastic box (Table 20, symbol H); assay type: in vivo, barnyard grass (Echinochloa crus-galli)
# Excerpt: as §1, §2
# [12] = test system: lambsquarters; test: Test Example 4: herbicidal effect by soil treatment (Table 19, symbol O); assay type: in vivo, lambsquarters (Chenopodium album); conditions: amount of applied herbicide 320 g/ha
# Excerpt: as §4
# as §2, with “Subsequently,” for “Thereafter, the plants were grown in a greenhouse at 25° C. to 30° C. After 14-day growth of the plants,”, “the surface of the soil” for “a foliage part”, “spray. The plastic box was placed in a greenhouse at 25° C. to 30° C. for growth of the plants.” for “spray.”
# [13] = test system: southern crabgrass; test: Test Example 4: herbicidal effect by soil treatment (Table 19, symbol F); assay type: in vivo, southern crabgrass (Digitaria ciliaris); conditions: amount of applied herbicide 320 g/ha
# Excerpt: as §4
# as §2, with “Subsequently,” for “Thereafter, the plants were grown in a greenhouse at 25° C. to 30° C. After 14-day growth of the plants,”, “the surface of the soil” for “a foliage part”, “spray. The plastic box was placed in a greenhouse at 25° C. to 30° C. for growth of the plants.” for “spray.”
# [14] = test system: barnyard grass; test: Test Example 3: herbicidal effect by foliage application, Wagner pot (Table 18, symbol H); assay type: in vivo, barnyard grass (Echinochloa crus-galli)
# Summary of the method: as §3
# [15] = test system: southern crabgrass; test: Test Example 5: herbicidal effect by foliage application, plastic box (Table 20, symbol F); assay type: in vivo, southern crabgrass (Digitaria ciliaris)
# Excerpt: as §1, §2
# [16] = test system: windgrass; test: Test Example 5: herbicidal effect by foliage application, plastic box (Table 20, symbol L); assay type: in vivo, windgrass (Apera spica-venti); conditions: amount of applied herbicide 320 g/ha; foliage application after 14-day growth; evaluated three weeks after application
# Summary of the method: as §5
# [17] = test system: wild oat; test: Test Example 5: herbicidal effect by foliage application, plastic box (Table 20, symbol I); assay type: in vivo, wild oat (Avena fatua); conditions: amount of applied herbicide 320 g/ha; foliage application after 14-day growth; evaluated three weeks after application
# Summary of the method: as §5
# [18] = test system: chickweed; test: Test Example 5: herbicidal effect by foliage application, plastic box (Table 20, symbol P); assay type: in vivo, common chickweed (Stellaria media); conditions: amount of applied herbicide 320 g/ha; foliage application after 14-day growth; evaluated three weeks after application
# Excerpt: as §1, §2
# [19] = test system: blackgrass; test: Test Example 5: herbicidal effect by foliage application, plastic box (Table 20, symbol J); assay type: in vivo, blackgrass (Alopecurus myosuroides); conditions: amount of applied herbicide 320 g/ha; foliage application after 14-day growth; evaluated three weeks after application
# Summary of the method: as §5
# [20] = test system: Italian ryegrass; test: Test Example 5: herbicidal effect by foliage application, plastic box (Table 20, symbol K); assay type: in vivo, Italian ryegrass (Lolium multiflorum); conditions: amount of applied herbicide 320 g/ha; foliage application after 14-day growth; evaluated three weeks after application
# Summary of the method: as §5
# [21] = foliage application, 320 g/ha, three weeks after application
# [22] = amount of applied herbicide 320 g/ha
# [23] = 320 g/ha, foliage application after 14-day growth, evaluated three weeks after application
# [24] = amount of applied herbicide 320 g/ha, foliage application after 14-day growth, evaluated three weeks after application
structure (smiles),measurement,setting,value
Cc1nn(C)c(=O)c(-c2c(-c3ccsc3)sc3ccc(F)cc23)c1O [2-463],"M: velvetleaf, herbicidal effect grade",[1]; [21],5 (Herbicidal rate of 90% or more (almost completely withered))
same,herbicidal effect on D: Chinese sprangletop,[2]; [22],0 (Herbicidal rate of 5% or less (almost no effect))
same,"herbicidal effect, G: green foxtail",[3],0 (Herbicidal rate of 5% or less (almost no effect))
same,"N: redroot pigweed, herbicidal effect grade",[4]; [21],5 (Herbicidal rate of 90% or more (almost completely withered))
same,"herbicidal effect, M: velvetleaf",[5],3 (Herbicidal rate of 40% or more and less than 70%)
same,"herbicidal effect, H: barnyard grass",[6],3 (Herbicidal rate of 40% or more and less than 70%)
same,"O: lambsquarters, herbicidal effect grade",[7]; [21],3 (Herbicidal rate of 40% or more and less than 70%)
same,herbicidal effect on E: rice flat sedge,[8]; [22],0 (Herbicidal rate of 5% or less (almost no effect))
same,"herbicidal effect, N: redroot pigweed",[9],4 (Herbicidal rate of 70% or more and less than 90%)
same,"G: green foxtail, herbicidal effect grade",[10]; [21],3 (Herbicidal rate of 40% or more and less than 70%)
same,"H: barnyard grass, herbicidal effect grade",[11]; [21],3 (Herbicidal rate of 40% or more and less than 70%)
same,"herbicidal effect, O: lambsquarters",[12],3 (Herbicidal rate of 40% or more and less than 70%)
same,"herbicidal effect, F: southern crabgrass",[13],2 (Herbicidal rate of 20% or more and less than 40%)
same,herbicidal effect on H: barnyard grass,[14]; [22],3 (Herbicidal rate of 40% or more and less than 70%)
same,"F: southern crabgrass, herbicidal effect grade",[15]; [21],4 (Herbicidal rate of 70% or more and less than 90%)
Cc1ccc2c(-c3c(O)c(C)nn(C)c3=O)c(-c3ccc(OC(F)(F)F)cc3)sc2c1 [3-168],herbicidal effect on M: velvetleaf (evaluation grade 0-5),[1]; [23],0 (Herbicidal rate of 5% or less (almost no effect))
same,"Herbicidal effect by soil treatment, G: green foxtail",[3],0 (Herbicidal rate of 5% or less (almost no effect))
same,herbicidal effect on N: redroot pigweed (evaluation grade 0-5),[4]; [23],2 (Herbicidal rate of 20% or more and less than 40%)
same,"Herbicidal effect by soil treatment, M: velvetleaf",[5],0 (Herbicidal rate of 5% or less (almost no effect))
same,"Herbicidal effect by soil treatment, H: barnyard grass",[6],0 (Herbicidal rate of 5% or less (almost no effect))
same,herbicidal effect on O: lambsquarters (evaluation grade 0-5),[7]; [23],3 (Herbicidal rate of 40% or more and less than 70%)
same,"Herbicidal effect by soil treatment, N: redroot pigweed",[9],3 (Herbicidal rate of 40% or more and less than 70%)
same,herbicidal effect on G: green foxtail (evaluation grade 0-5),[10]; [23],0 (Herbicidal rate of 5% or less (almost no effect))
same,herbicidal effect on H: barnyard grass (evaluation grade 0-5),[11]; [23],0 (Herbicidal rate of 5% or less (almost no effect))
same,"Herbicidal effect by soil treatment, O: lambsquarters",[12],0 (Herbicidal rate of 5% or less (almost no effect))
same,"Herbicidal effect by soil treatment, F: southern crabgrass",[13],0 (Herbicidal rate of 5% or less (almost no effect))
same,herbicidal effect on F: southern crabgrass (evaluation grade 0-5),[15]; [23],0 (Herbicidal rate of 5% or less (almost no effect))
Cc1nn(C)c(=O)c(-c2c(-c3cccc(C(F)(F)F)c3)sc3c(Cl)cccc23)c1O [4-072],"Herbicidal effect by foliage application, L: windgrass",[16],0 (Herbicidal rate of 5% or less (almost no effect))
same,"Herbicidal effect by foliage application, M: velvetleaf",[1]; [24],3 (Herbicidal rate of 40% or more and less than 70%)
same,herbicidal effect on Chinese sprangletop (D),[2]; 320 g/ha,3 (Herbicidal rate of 40% or more and less than 70%)
same,"Herbicidal effect by foliage application, I: wild oat",[17],0 (Herbicidal rate of 5% or less (almost no effect))
same,"Herbicidal effect by foliage application, N: redroot pigweed",[4]; [24],5 (Herbicidal rate of 90% or more (almost completely withered))
same,"Herbicidal effect by foliage application, O: lambsquarters",[7]; [24],2 (Herbicidal rate of 20% or more and less than 40%)
same,"Herbicidal effect by foliage application, P: chickweed",[18],5 (Herbicidal rate of 90% or more (almost completely withered))
same,herbicidal effect on rice flat sedge (E),[8]; 320 g/ha,4 (Herbicidal rate of 70% or more and less than 90%)
same,"Herbicidal effect by foliage application, J: blackgrass",[19],0 (Herbicidal rate of 5% or less (almost no effect))
same,"Herbicidal effect by foliage application, G: green foxtail",[10]; [24],3 (Herbicidal rate of 40% or more and less than 70%)
same,"Herbicidal effect by foliage application, H: barnyard grass",[11]; [24],1 (Herbicidal rate of 5% or more and less than 20%)
same,"Herbicidal effect by foliage application, K: Italian ryegrass",[20],1 (Herbicidal rate of 5% or more and less than 20%)
same,herbicidal effect on barnyard grass (H),[14]; 320 g/ha,3 (Herbicidal rate of 40% or more and less than 70%)
same,"Herbicidal effect by foliage application, F: southern crabgrass",[15]; [24],4 (Herbicidal rate of 70% or more and less than 90%)

# Reference: US20230085307A1, “PYRIDAZINONE COMPOUND AND HERBICIDE” (NISSAN CHEMICAL CORPORATION, priority 2019, published 2023)
